Reference: ChEMBL document CHEMBL1131555 (Bioorg Med Chem Lett, 1998)

How the values were obtained:
[1] = molecular target: T1, Glucocorticoid receptor (Homo sapiens, UniProt P04150)
T1 sequence (P04150 whole entry): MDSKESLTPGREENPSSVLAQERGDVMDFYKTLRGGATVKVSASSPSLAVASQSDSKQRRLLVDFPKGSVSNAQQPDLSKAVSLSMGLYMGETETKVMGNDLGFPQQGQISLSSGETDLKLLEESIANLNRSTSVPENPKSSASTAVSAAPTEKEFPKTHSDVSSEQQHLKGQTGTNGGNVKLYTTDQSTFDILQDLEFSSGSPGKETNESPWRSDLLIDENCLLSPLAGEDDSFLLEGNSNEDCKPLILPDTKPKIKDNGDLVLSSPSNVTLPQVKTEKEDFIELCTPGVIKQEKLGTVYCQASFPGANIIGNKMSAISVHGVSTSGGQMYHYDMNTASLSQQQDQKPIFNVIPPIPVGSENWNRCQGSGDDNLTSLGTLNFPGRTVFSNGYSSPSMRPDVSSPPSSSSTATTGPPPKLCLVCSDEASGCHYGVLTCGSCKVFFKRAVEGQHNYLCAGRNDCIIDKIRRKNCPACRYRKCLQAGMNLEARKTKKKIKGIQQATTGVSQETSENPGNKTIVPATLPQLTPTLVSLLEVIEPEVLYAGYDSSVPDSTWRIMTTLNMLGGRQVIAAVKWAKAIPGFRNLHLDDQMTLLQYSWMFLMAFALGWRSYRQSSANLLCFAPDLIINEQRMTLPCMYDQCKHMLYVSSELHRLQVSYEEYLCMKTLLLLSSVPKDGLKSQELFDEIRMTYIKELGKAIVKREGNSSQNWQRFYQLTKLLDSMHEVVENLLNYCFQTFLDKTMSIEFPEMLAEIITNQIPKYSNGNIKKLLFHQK
Description: Displacement of Dexamethasone from human glucocorticoid receptor

[2] = molecular target: T2, Androgen receptor (Homo sapiens, UniProt P10275)
T2 sequence (P10275 whole entry): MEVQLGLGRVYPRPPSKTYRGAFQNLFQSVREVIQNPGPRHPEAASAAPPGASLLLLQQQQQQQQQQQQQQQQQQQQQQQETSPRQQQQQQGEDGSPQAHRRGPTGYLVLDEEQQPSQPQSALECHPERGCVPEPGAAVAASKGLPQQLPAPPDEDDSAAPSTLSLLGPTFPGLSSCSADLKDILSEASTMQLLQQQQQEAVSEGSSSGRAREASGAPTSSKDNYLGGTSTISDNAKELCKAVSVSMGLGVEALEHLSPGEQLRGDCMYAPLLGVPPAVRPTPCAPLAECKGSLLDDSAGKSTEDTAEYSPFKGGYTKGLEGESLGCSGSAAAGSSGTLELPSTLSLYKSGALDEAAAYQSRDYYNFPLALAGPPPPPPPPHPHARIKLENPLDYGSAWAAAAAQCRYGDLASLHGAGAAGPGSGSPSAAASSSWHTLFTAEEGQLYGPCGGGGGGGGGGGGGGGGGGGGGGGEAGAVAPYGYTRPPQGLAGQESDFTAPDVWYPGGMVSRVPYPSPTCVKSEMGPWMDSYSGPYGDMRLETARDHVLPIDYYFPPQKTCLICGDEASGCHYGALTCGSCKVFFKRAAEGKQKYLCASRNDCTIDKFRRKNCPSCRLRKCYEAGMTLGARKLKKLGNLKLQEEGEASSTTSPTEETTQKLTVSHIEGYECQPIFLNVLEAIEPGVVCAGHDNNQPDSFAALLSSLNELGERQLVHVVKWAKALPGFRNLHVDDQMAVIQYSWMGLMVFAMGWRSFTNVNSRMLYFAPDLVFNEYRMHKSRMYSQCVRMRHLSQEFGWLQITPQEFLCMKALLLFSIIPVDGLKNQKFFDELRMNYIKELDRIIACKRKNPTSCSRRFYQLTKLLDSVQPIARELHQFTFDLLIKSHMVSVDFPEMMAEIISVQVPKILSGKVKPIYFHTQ
Description: Displacement of DHT from human androgen receptor

| Ki [1] | Ki [2] | Compound |
| --- | --- | --- |
| 260 nM | 697 nM | CCCOC1Oc2ccc(Cl)cc2-c2ccc3c(c21)C(C)=CC(C)(C)N3 (stereo not given) |
| 130 nM | 785 nM | CCCCC1Oc2ccc(OC)cc2-c2ccc3c(c21)C(C)=CC(C)(C)N3 (stereo not given) |
| 813 nM | 2050 nM | CCCCC1Oc2ccccc2-c2ccc3c(c21)C(C)=CC(C)(C)N3 (stereo not given) |

Second part, the compound before the results:

| Compound | Ki [1] | Ki [2] |
| --- | --- | --- |
| CCCCC1Oc2ccc(Cl)cc2-c2ccc3c(c21)C(C)=CC(C)(C)N3 (stereo not given) | 394 nM | 886 nM |
| CC1=CC(C)(C)Nc2ccc3c(c21)C(CCC(C)C)Oc1ccccc1-3 (stereo not given) | 158 nM | 1480 nM |
| CCCCC1Oc2ccc(C)cc2-c2ccc3c(c21)C(C)=CC(C)(C)N3 (stereo not given) | 51 nM | 903 nM |
| CC1=CC(C)(C)Nc2ccc3c(c21)C(C)Oc1ccc(F)cc1-3 (stereo not given) | 749 nM | 456 nM |
| CC1=CC(C)(C)Nc2ccc3c(c21)C(C)Oc1ccc(Cl)cc1-3 (stereo not given) | 367 nM | 621 nM |
| CCCCC1Oc2ccc(F)cc2-c2ccc3c(c21)C(C)=CC(C)(C)N3 (stereo not given) | 533 nM | 1330 nM |
| C=CCC1Oc2ccccc2-c2ccc3c(c21)C(C)=CC(C)(C)N3 (stereo not given) | 889 nM | > 1000 nM |
